Results from US8084649B2, “Herbicides” (Syngenta Crop Protection, inc., priority 2007, dated 2011).

system: Alopecurus myosuroides (ALOMY); experiment: Pre-emergence herbicidal activity, glasshouse pot test; type: in vivo; conditions: Alopecurus myosuroides, 480 h, rate 500 g/ha, evaluated after 20 days, read-out: Pre-emergence activity, ALOMY (100=total damage to plant; 0=no damage to plant)
Description: (§1) Monocotyledonous and dicotyledonous test plants were sown in sterilised standard soil in pots. After cultivation for one day (pre-emergence) or after 10 days cultivation (post-emergence) under controlled conditions in a glasshouse, the plants were sprayed with an aqueous spray solution derived from the formulation of the technical active ingredient in 0.6 ml acetone and 45 ml formulation solution containing 10.6% Emulsogen EL (Registry number 61791-12-6), 42.2% N-methylpyrrolidone, 42.2% dipropylene glycol monomethyl ether (Registry number 34590-94-8) and 0.2% X-77 (Registry number 11097-66-8). The test plants were then grown in a greenhouse under optimum conditions until, 14 or 15 days later for post-emergence and 20 days for pre-emergence, the test was evaluated (100=total damage to plant; 0=no damage to plant). Alopecurus myosuroides (ALOMY), Avena fatua (AVEFA), Lolium perenne (LOLPE), Setaria faberi (SETFA), Digitaria sanguinalis (DIGSA), Echinochloa crus-galli (ECHCG) Pre-Emergence Activity

Question: With `CCc1cc(C)cc(CC)c1C1=C(O)CC(CC(C)SC)CC1=O` (centres unmarked) [Compound T17] as the compound, how does the pest or weed control at 500 g/ha read?
Answer: The pest or weed control at 500 g/ha was 90%.

Question: How did the pest or weed control at 500 g/ha turn out when `CCOC1=C(c2c(CC)cc(C)cc2CC)C(=O)CC2(CCOCC2)C1` [Compound P33] was run?
Answer: Its pest or weed control at 500 g/ha is 90%.

Question: Which pest or weed control at 500 g/ha does the source give for `CCc1cc(C)cc(CC)c1C1=C(O)CC2(CCSCC2)CC1=O` [Compound T11] here?
Answer: The pest or weed control at 500 g/ha was 80%.

system: Echinochloa crus-galli (ECHCG); experiment: as above; type: in vivo; conditions: Echinochloa crus-galli, 480 h, rate 500 g/ha, evaluated after 20 days, read-out: Pre-emergence activity, ECHCG (100=total damage to plant; 0=no damage to plant)
Description: as §1

Question: `CCc1cc(C)cc(CC)c1C1=C(O)CC(CC(C)SC)CC1=O` (centres unmarked) [Compound T17] was tested. Which pest or weed control at 500 g/ha did it give?
Answer: Its pest or weed control at 500 g/ha is 100%.

Question: How did the pest or weed control at 500 g/ha turn out when `CCOC1=C(c2c(CC)cc(C)cc2CC)C(=O)CC2(CCOCC2)C1` [Compound P33] was run?
Answer: Its pest or weed control at 500 g/ha is 10%.

Question: How did the pest or weed control at 500 g/ha turn out when `CCc1cc(C)cc(CC)c1C1=C(O)CC2(CCSCC2)CC1=O` [Compound T11] was run?
Answer: The pest or weed control at 500 g/ha was 80%.

system: Setaria faberi (SETFA); experiment: as above; type: in vivo; conditions: Setaria faberi, 480 h, rate 500 g/ha, evaluated after 20 days, read-out: Pre-emergence activity, SETFA (100=total damage to plant; 0=no damage to plant)
Description: as §1

Question: `CCc1cc(C)cc(CC)c1C1=C(O)CC(CC(C)SC)CC1=O` (centres unmarked) [Compound T17] was tested. Which pest or weed control at 500 g/ha did it give?
Answer: The pest or weed control at 500 g/ha was 100%.

Question: Which pest or weed control at 500 g/ha does the source give for `CCOC1=C(c2c(CC)cc(C)cc2CC)C(=O)CC2(CCOCC2)C1` [Compound P33] here?
Answer: The pest or weed control at 500 g/ha was 10%.

Question: With `CCc1cc(C)cc(CC)c1C1=C(O)CC2(CCSCC2)CC1=O` [Compound T11] as the compound, how does the pest or weed control at 500 g/ha read?
Answer: The pest or weed control at 500 g/ha was 90%.

system: Digitaria sanguinalis (DIGSA); experiment: as above; type: in vivo; conditions: Digitaria sanguinalis, 480 h, rate 500 g/ha, evaluated after 20 days, read-out: Pre-emergence activity, DIGSA (100=total damage to plant; 0=no damage to plant)
Description: as §1

Question: Which pest or weed control at 500 g/ha does the source give for `CCc1cc(C)cc(CC)c1C1=C(O)CC(CC(C)SC)CC1=O` (centres unmarked) [Compound T17] here?
Answer: Its pest or weed control at 500 g/ha is 100%.

Question: For `CCOC1=C(c2c(CC)cc(C)cc2CC)C(=O)CC2(CCOCC2)C1` [Compound P33], which pest or weed control at 500 g/ha is on record?
Answer: Its pest or weed control at 500 g/ha is 70%.

Question: How did the pest or weed control at 500 g/ha turn out when `CCc1cc(C)cc(CC)c1C1=C(O)CC2(CCSCC2)CC1=O` [Compound T11] was run?
Answer: The pest or weed control at 500 g/ha was 90%.

system: Lolium perenne (LOLPE); experiment: as above; type: in vivo; conditions: Lolium perenne, 480 h, rate 500 g/ha, evaluated after 20 days, read-out: Pre-emergence activity, LOLPE (100=total damage to plant; 0=no damage to plant)
Description: as §1

Question: `CCc1cc(C)cc(CC)c1C1=C(O)CC(CC(C)SC)CC1=O` (centres unmarked) [Compound T17] was tested. Which pest or weed control at 500 g/ha did it give?
Answer: The pest or weed control at 500 g/ha was 100%.

Question: For `CCOC1=C(c2c(CC)cc(C)cc2CC)C(=O)CC2(CCOCC2)C1` [Compound P33], which pest or weed control at 500 g/ha is on record?
Answer: Its pest or weed control at 500 g/ha is 50%.

Question: `CCc1cc(C)cc(CC)c1C1=C(O)CC2(CCSCC2)CC1=O` [Compound T11] was tested. Which pest or weed control at 500 g/ha did it give?
Answer: Its pest or weed control at 500 g/ha is 100%.

system: Avena fatua (AVEFA); experiment: as above; type: in vivo; conditions: Avena fatua, 480 h, rate 500 g/ha, evaluated after 20 days, read-out: Pre-emergence activity, AVEFA (100=total damage to plant; 0=no damage to plant)
Description: as §1

Question: How did the pest or weed control at 500 g/ha turn out when `CCc1cc(C)cc(CC)c1C1=C(O)CC(CC(C)SC)CC1=O` (centres unmarked) [Compound T17] was run?
Answer: The pest or weed control at 500 g/ha was 90%.

Question: Which pest or weed control at 500 g/ha does the source give for `CCOC1=C(c2c(CC)cc(C)cc2CC)C(=O)CC2(CCOCC2)C1` [Compound P33] here?
Answer: Its pest or weed control at 500 g/ha is 30%.

system: Alopecurus myosuroides (ALOMY); experiment: Post-emergence herbicidal activity, glasshouse pot test; type: in vivo; conditions: Alopecurus myosuroides, rate 125 g/ha, evaluated after 14 or 15 days, read-out: Post-emergence activity, ALOMY (100=total damage to plant; 0=no damage to plant)
Description: as §1, with “Post-Emergence” for “Pre-Emergence”

Question: For `CCOC1=C(c2c(CC)cc(C)cc2CC)C(=O)CC2(CCOCC2)C1` [Compound P33], which pest or weed control at 125 g/ha is on record?
Answer: The pest or weed control at 125 g/ha was 20%.

same assay, conditions: Alopecurus myosuroides, rate 500 g/ha, evaluated after 14 or 15 days, read-out: Post-emergence activity, ALOMY (100=total damage to plant; 0=no damage to plant)

Question: For `CCc1cc(C)cc(CC)c1C1=C(O)CC(CC(C)SC)CC1=O` (centres unmarked) [Compound T17], which pest or weed control at 500 g/ha is on record?
Answer: Its pest or weed control at 500 g/ha is 0%.

Question: How did the pest or weed control at 500 g/ha turn out when `CCc1cc(C)cc(CC)c1C1=C(O)CC2(CCSCC2)CC1=O` [Compound T11] was run?
Answer: Its pest or weed control at 500 g/ha is 80%.

system: Echinochloa crus-galli (ECHCG); experiment: as above; type: in vivo; conditions: Echinochloa crus-galli, rate 125 g/ha, evaluated after 14 or 15 days, read-out: Post-emergence activity, ECHCG (100=total damage to plant; 0=no damage to plant)
Description: as §1, with “Post-Emergence” for “Pre-Emergence”

Question: Which pest or weed control at 125 g/ha does the source give for `CCOC1=C(c2c(CC)cc(C)cc2CC)C(=O)CC2(CCOCC2)C1` [Compound P33] here?
Answer: The pest or weed control at 125 g/ha was 0%.

same assay, conditions: Echinochloa crus-galli, rate 500 g/ha, evaluated after 14 or 15 days, read-out: Post-emergence activity, ECHCG (100=total damage to plant; 0=no damage to plant)

Question: `CCc1cc(C)cc(CC)c1C1=C(O)CC(CC(C)SC)CC1=O` (centres unmarked) [Compound T17] was tested. Which pest or weed control at 500 g/ha did it give?
Answer: The pest or weed control at 500 g/ha was 90%.

Question: With `CCc1cc(C)cc(CC)c1C1=C(O)CC2(CCSCC2)CC1=O` [Compound T11] as the compound, how does the pest or weed control at 500 g/ha read?
Answer: The pest or weed control at 500 g/ha was 90%.

system: Setaria faberi (SETFA); experiment: as above; type: in vivo; conditions: Setaria faberi, rate 125 g/ha, evaluated after 14 or 15 days, read-out: Post-emergence activity, SETFA (100=total damage to plant; 0=no damage to plant)
Description: as §1, with “Post-Emergence” for “Pre-Emergence”

Question: With `CCOC1=C(c2c(CC)cc(C)cc2CC)C(=O)CC2(CCOCC2)C1` [Compound P33] as the compound, how does the pest or weed control at 125 g/ha read?
Answer: The pest or weed control at 125 g/ha was 0%.

same assay, conditions: Setaria faberi, rate 500 g/ha, evaluated after 14 or 15 days, read-out: Post-emergence activity, SETFA (100=total damage to plant; 0=no damage to plant)

Question: How did the pest or weed control at 500 g/ha turn out when `CCc1cc(C)cc(CC)c1C1=C(O)CC(CC(C)SC)CC1=O` (centres unmarked) [Compound T17] was run?
Answer: Its pest or weed control at 500 g/ha is 90%.

Question: With `CCc1cc(C)cc(CC)c1C1=C(O)CC2(CCSCC2)CC1=O` [Compound T11] as the compound, how does the pest or weed control at 500 g/ha read?
Answer: The pest or weed control at 500 g/ha was 90%.

system: Digitaria sanguinalis (DIGSA); experiment: as above; type: in vivo; conditions: Digitaria sanguinalis, rate 125 g/ha, evaluated after 14 or 15 days, read-out: Post-emergence activity, DIGSA (100=total damage to plant; 0=no damage to plant)
Description: as §1, with “Post-Emergence” for “Pre-Emergence”

Question: Which pest or weed control at 125 g/ha does the source give for `CCOC1=C(c2c(CC)cc(C)cc2CC)C(=O)CC2(CCOCC2)C1` [Compound P33] here?
Answer: Its pest or weed control at 125 g/ha is 30%.

same assay, conditions: Digitaria sanguinalis, rate 500 g/ha, evaluated after 14 or 15 days, read-out: Post-emergence activity, DIGSA (100=total damage to plant; 0=no damage to plant)

Question: How did the pest or weed control at 500 g/ha turn out when `CCc1cc(C)cc(CC)c1C1=C(O)CC(CC(C)SC)CC1=O` (centres unmarked) [Compound T17] was run?
Answer: The pest or weed control at 500 g/ha was 100%.

Question: Which pest or weed control at 500 g/ha does the source give for `CCc1cc(C)cc(CC)c1C1=C(O)CC2(CCSCC2)CC1=O` [Compound T11] here?
Answer: Its pest or weed control at 500 g/ha is 90%.

system: Lolium perenne (LOLPE); experiment: as above; type: in vivo; conditions: Lolium perenne, rate 125 g/ha, evaluated after 14 or 15 days, read-out: Post-emergence activity, LOLPE (100=total damage to plant; 0=no damage to plant)
Description: as §1, with “Post-Emergence” for “Pre-Emergence”

Question: `CCOC1=C(c2c(CC)cc(C)cc2CC)C(=O)CC2(CCOCC2)C1` [Compound P33] was tested. Which pest or weed control at 125 g/ha did it give?
Answer: The pest or weed control at 125 g/ha was 0%.

same assay, conditions: Lolium perenne, rate 500 g/ha, evaluated after 14 or 15 days, read-out: Post-emergence activity, LOLPE (100=total damage to plant; 0=no damage to plant)

Question: `CCc1cc(C)cc(CC)c1C1=C(O)CC(CC(C)SC)CC1=O` (centres unmarked) [Compound T17] was tested. Which pest or weed control at 500 g/ha did it give?
Answer: Its pest or weed control at 500 g/ha is 100%.

Question: `CCc1cc(C)cc(CC)c1C1=C(O)CC2(CCSCC2)CC1=O` [Compound T11] was tested. Which pest or weed control at 500 g/ha did it give?
Answer: The pest or weed control at 500 g/ha was 70%.

system: Avena fatua (AVEFA); experiment: as above; type: in vivo; conditions: Avena fatua, rate 125 g/ha, evaluated after 14 or 15 days, read-out: Post-emergence activity, AVEFA (100=total damage to plant; 0=no damage to plant)
Description: as §1, with “Post-Emergence” for “Pre-Emergence”

Question: With `CCOC1=C(c2c(CC)cc(C)cc2CC)C(=O)CC2(CCOCC2)C1` [Compound P33] as the compound, how does the pest or weed control at 125 g/ha read?
Answer: The pest or weed control at 125 g/ha was 0%.

same assay, conditions: Avena fatua, rate 500 g/ha, evaluated after 14 or 15 days, read-out: Post-emergence activity, AVEFA (100=total damage to plant; 0=no damage to plant)

Question: With `CCc1cc(C)cc(CC)c1C1=C(O)CC(CC(C)SC)CC1=O` (centres unmarked) [Compound T17] as the compound, how does the pest or weed control at 500 g/ha read?
Answer: Its pest or weed control at 500 g/ha is 90%.

Question: `CCc1cc(C)cc(CC)c1C1=C(O)CC2(CCSCC2)CC1=O` [Compound T11] was tested. Which pest or weed control at 500 g/ha did it give?
Answer: The pest or weed control at 500 g/ha was 80%.
